Source: PubChem BioAssay AID1919001 (Molecular Pharmacology Branch, DTP, NCI, 2023)

Tested on: 699152-130-R-J1-PDC complex spheroid growth
Assay: Anticancer human tumor 699152-130-R-J1-PDC patient-derived pancreatic carcinoma cell line growth inhibition [AhR]
Conditions: for IC50: curve of first compound; for viability, T/C: stronger effect = lower value
In short: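 Agents were dosed in half-log steps down from roughly clinical Cmax, or from 10 microM where Cmax was unknown, alone and with AhR antagonists. Read-out: percent test/control growth of tumor spheroids containing HUVEC and MSC stromal cells.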

[1] = second compound 0.1 µM, first compound 0.0316 µM
[2] = second compound 0.1 µM, first compound 0.1 µM
[3] = second compound 0.1 µM, first compound 0.316 µM
[4] = second compound 0.1 µM, first compound 1 µM
[5] = second compound 0.316 µM, first compound 0.0316 µM
[6] = second compound 0.316 µM, first compound 0.1 µM
[7] = second compound 0.316 µM, first compound 0.316 µM
[8] = second compound 0.316 µM, first compound 1 µM
[9] = second compound 1 µM, first compound 0.0316 µM
[10] = second compound 1 µM, first compound 0.1 µM
[11] = second compound 1 µM, first compound 0.316 µM
[12] = second compound 1 µM, first compound 1 µM
[13] = second compound 3.16 µM, first compound 0.0316 µM
[14] = second compound 3.16 µM, first compound 0.1 µM
[15] = second compound 3.16 µM, first compound 0.316 µM
[16] = second compound 3.16 µM, first compound 1 µM
[17] = second compound 10 µM, first compound 0.0316 µM
[18] = second compound 10 µM, first compound 0.1 µM
[19] = second compound 10 µM, first compound 0.316 µM
[20] = second compound 10 µM, first compound 1 µM
[21] = second compound 0.1 µM, first compound 3.16 µM
[22] = second compound 0.1 µM, first compound 10 µM
[23] = second compound 0.316 µM, first compound 3.16 µM
[24] = second compound 0.316 µM, first compound 10 µM
[25] = second compound 1 µM, first compound 3.16 µM
[26] = second compound 1 µM, first compound 10 µM
[27] = second compound 3.16 µM, first compound 3.16 µM
[28] = second compound 3.16 µM, first compound 10 µM
[29] = second compound 10 µM, first compound 3.16 µM
[30] = second compound 10 µM, first compound 10 µM
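Also: compound exposure lasted 7 days after spheroids had grown for 3 days.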

IC50 (second compound 0.1 µM) [µM] | IC50 (second compound 0.316 µM) [µM] | IC50 (second compound 1 µM) [µM] | IC50 (second compound 3.16 µM) [µM] | IC50 (second compound 10 µM) [µM] | Structure (SMILES) | viability, T/C [1] [%] | viability, T/C [2] [%] | viability, T/C [3] [%] | viability, T/C [4] [%] | viability, T/C [5] [%] | viability, T/C [6] [%] | viability, T/C [7] [%] | viability, T/C [8] [%] | viability, T/C [9] [%] | viability, T/C [10] [%] | viability, T/C [11] [%] | viability, T/C [12] [%] | viability, T/C [13] [%] | viability, T/C [14] [%] | viability, T/C [15] [%] | further results
> 1 | > 1 | > 1 | 0.489 | < 0.00316 | CC1COCCN1c1cc(-c2ccnn2C)c2ccnc(-c3ccn[nH]3)c2n1 (stereo unspecified) + Cc1cncc(-c2nc(NCCc3c[nH]c4ccccc34)c3ncn(C(C)C)c3n2)c1 | 107 | 96.5 | 75.7 | 64.4 | 103 | 88.3 | 81.6 | 62 | 135 | 105 | 79.9 | 64.9 | 67.2 | 57.4 | 52.5 | viability, T/C (second compound 0.1 µM, first compound 0.00316 µM): 109%; viability, T/C (second compound 0.1 µM, first compound 0.01 µM): 94.4%; viability, T/C (second compound 0.316 µM, first compound 0.00316 µM): 119%; viability, T/C (second compound 0.316 µM, first compound 0.01 µM): 122%; viability, T/C (second compound 1 µM, first compound 0.00316 µM): 127%; viability, T/C (second compound 1 µM, first compound 0.01 µM): 128%; viability, T/C (second compound 3.16 µM, first compound 0.00316 µM): 77.6%; viability, T/C (second compound 3.16 µM, first compound 0.01 µM): 64.1%; viability, T/C [16]: 46%; viability, T/C (second compound 10 µM, first compound 0.00316 µM): 5.06%; viability, T/C (second compound 10 µM, first compound 0.01 µM): 5.37%; viability, T/C [17]: 5.23%; viability, T/C [18]: 5.76%; viability, T/C [19]: 7.12%; viability, T/C [20]: 9.33%
– | – | – | – | – | Cc1cncc(-c2nc(NCCc3c[nH]c4ccccc34)c3ncn(C(C)C)c3n2)c1 | – | – | – | – | – | – | – | – | – | – | – | – | – | – | – | viability, T/C (compound 0.1 µM): 97.9% [middle of 20 runs]
> 10 | > 10 | > 10 | > 10 | > 10 | CC(C)c1c(-c2ccccc2)nc2c(C#N)c[nH]n2c1=O + Cc1ccccc1N=Nc1ccc(NC(=O)c2ccnn2C)c(C)c1 | 104 | 81.7 | 89.5 | 86.4 | 94.6 | 86.2 | 82.6 | 82.5 | 83.3 | 93 | 87.7 | 99.1 | 96 | 102 | 103 | viability, T/C [21]: 79.6%; viability, T/C [22]: 92.1%; viability, T/C [23]: 84.6%; viability, T/C [24]: 84.6%; viability, T/C [25]: 86.7%; viability, T/C [26]: 90.8%; viability, T/C [16]: 82.5%; viability, T/C [27]: 98.8%; viability, T/C [28]: 93.5%; viability, T/C [17]: 99.7%; viability, T/C [18]: 96.6%; viability, T/C [19]: 103%; viability, T/C [20]: 102%; viability, T/C [29]: 106%; viability, T/C [30]: 103%
5.75 | 10 | 7.01 | 2.91 | 9.15 | Nc1ccn(C2OC(CO)C(O)C2(F)F)c(=O)n1 (stereo unspecified) + CC(CO)NC(=O)c1cc(-c2ccc(Cl)cc2)nn(-c2cnn(C)c2)c1=O | 67.1 | 73.4 | 62 | 56.4 | 67 | 73.1 | 50.8 | 53.6 | 68.8 | 69.5 | 63.5 | 61.5 | 66.1 | 67.4 | 55.8 | viability, T/C [21]: 52.6%; viability, T/C [22]: 48.1%; viability, T/C [23]: 50.6%; viability, T/C [24]: 47%; viability, T/C [25]: 56.7%; viability, T/C [26]: 47.1%; viability, T/C [16]: 54.3%; viability, T/C [27]: 49.2%; viability, T/C [28]: 46.3%; viability, T/C [17]: 68.9%; viability, T/C [18]: 70.7%; viability, T/C [19]: 62%; viability, T/C [20]: 60.9%; viability, T/C [29]: 53.9%; viability, T/C [30]: 50%
